Structures can show the parent of a compound that is named as a salt.

The record followed here is US12427346B2, “P62 ligand compound, and composition for preventing, ameliorating or treating proteinopathies comprising the same” (AUTOTAC INC., priority 2018, dated 2025).

T1 sequence (Q13501 whole entry): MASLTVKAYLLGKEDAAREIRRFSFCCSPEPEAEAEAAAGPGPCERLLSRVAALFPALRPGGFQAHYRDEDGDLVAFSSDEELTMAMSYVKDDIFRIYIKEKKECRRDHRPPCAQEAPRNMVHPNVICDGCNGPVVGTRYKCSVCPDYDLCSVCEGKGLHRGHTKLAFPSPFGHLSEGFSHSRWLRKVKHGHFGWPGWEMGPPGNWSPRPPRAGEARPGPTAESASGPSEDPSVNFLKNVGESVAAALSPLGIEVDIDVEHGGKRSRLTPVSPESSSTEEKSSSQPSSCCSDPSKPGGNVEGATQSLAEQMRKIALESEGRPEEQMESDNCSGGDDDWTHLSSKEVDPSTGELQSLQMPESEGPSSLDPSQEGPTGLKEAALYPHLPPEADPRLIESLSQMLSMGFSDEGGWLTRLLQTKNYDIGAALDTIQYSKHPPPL

One test concerns the target T1, p62 protein (Homo sapiens, UniProt Q13501).
T1 construct: endogenous in cells; host or cells: HEK293 (lysate treated with compounds)
Put plainly: Oligomerization activity of p62 protein by immunoblotting (Experimental Example 1). It counts as cell-based. The settings on record: HEK293 cell lysate treated with test compounds at room temperature for 2 hours; immunoblot, FIG. 2. From the text: In order to evaluate the p62 protein oligomerization activity efficacy by the compounds (Examples 1-25), HEK293 cell line, which is human embryonic kidney-derived cell, was collected. As the representative compounds among the present compounds, the compounds of Examples 1, 2, 3, 5, 6, 7, 8, 9, 12, and 13 (Example 10 (YT-5-1), Example 11 (YT-5-2), Example 12 (YT 5-7), Example 13 (YT 5-8), Example 15 (YT-8-7), Example 16 (YT-8-8), Example 17 (YTK-107), Example 18 ([…]), Example 20 (ATB10041), Example 21 (ATB10042), Example 22 (ATB10043), Example 23 (ATB10044), Example 24 (ATB10045) and Example 25 (ATB10046)) were selected. In order to measure intracellular p62 protein activation and oligomerization according to the treatment with these selected representative compounds, the respective cells were dispensed into a 100 pi dish. The cells were collected after further culturing for 24 hours so that the cells were completely attached to the surface of the plate. 100 ul of lysis buffer (20 mM Tris, pH 7.4), 150 mM NaCl, 1% Triton X-100, 2 mM NaF, 2 mM EDTA, 2 mM beta-glycerophosphate, 5 mM sodium orthovanadate, 1 mM PMSF, leupeptin, aprotinin) were injected into each sample and the cells were lysed. Based on the measured total protein concentration, each sample was treated with test compounds at room temperature for 2 hours, and then a sample buffer was added and allowed to react at 95° C. for 10 minutes. 25 ul was taken from the samples after the reaction, and dispensed into each well of acrylamide gel, and then immunoblotting was performed.
(In general: In western blotting, separated proteins are transferred to a membrane and probed.)
On to `O=C(NCCO)NCc1ccc(OCc2ccccc2)c(OCc2ccccc2)c1` [ATB10041, 1-(3,4-bis(benzyloxy)benzyl)-3-(2-hydroxyethyl)urea], for which the “p62 protein oligomerization activity (monomer, oligomers and high-molecular aggregates)” value (from here on “p62 protein oligomerization activity”) was “increasing the p62 protein oligomerization activity”. For `O=C(CO)NCc1ccc(OCc2ccccc2)c(OCc2ccccc2)c1` [ATB10042, N-(3,4-bis(benzyloxy)benzyl)-2-hydroxyacetamide], the “p62 protein oligomerization activity” value was “increasing the p62 protein oligomerization activity”.

With `COc1cc(CNCCO)cc(OCc2ccccc2)c1OCc1ccccc1` [ATB10045, 2-((3,4-bis(benzyloxy)-5-methoxybenzyl)amino)ethan-1-ol], the “p62 protein oligomerization activity” value was “increasing the p62 protein oligomerization activity”. As for `N[C@H](CNCc1ccc(OCc2ccccc2)c(OCc2ccccc2)c1)C(=O)O` [ATB10043, (R)-2-amino-3-((3,4-bis(benzyloxy)benzyl)amino)propanoic acid], the “p62 protein oligomerization activity” value is “increasing the p62 protein oligomerization activity”. On the same count and under the same terms, then `NC(=O)CNCc1ccc(OCc2ccccc2)c(OCc2ccccc2)c1` [ATB10044, 2-((3,4-bis(benzyloxy)benzyl)amino)acetamide], with “increasing the p62 protein oligomerization activity”; and `OCCNCc1cc(Cl)c(OCc2ccccc2)c(OCc2ccccc2)c1` [ATB10046, 2-((3,4-bis(benzyloxy)-5-chlorobenzyl)amino)ethan-1-ol], with “increasing the p62 protein oligomerization activity”.

Another test deals with LC3. Put plainly: Autophagy activity of control compounds by immunoblotting (Experimental Example 4). It counts as cell-based, human. As to conditions: different concentrations and different times; immunoblot, FIG. 5. The protocol:
In order to investigate the autophagy activity efficacy of control compounds, immunoblotting was performed in the same manner as in Experimental Example 2 by using LC3 as a marker. As the control compounds, compounds having the following structure were used.
On to `c1ccc(CCOc2cc(OC[C@H]3CO3)ccc2OCc2ccccc2)cc1` [Example 1203, (R)-2-((4-(benzyloxy)-3-phenethoxyphenoxy)methyl)oxirane], for which the “autophagy activity (level of LC3) of control compounds” value is “do not increase autophagy activity”. Turning to `Oc1ccc(OCc2ccccc2)c(OCCc2ccccc2)c1` [Example 1202, 4-(benzyloxy)-3-phenethoxyphenol], the “autophagy activity (level of LC3) of control compounds” value is “do not increase autophagy activity”. For `O=Cc1ccc(OCc2ccccc2)c(OCCCCc2ccccc2)c1` [Example 1401, 4-(benzyloxy)-3-(4-phenylbutoxy)benzaldehyde], the “autophagy activity (level of LC3) of control compounds” value is reported as “do not increase autophagy activity”.

For the compound `Oc1ccc(OCCCCc2ccccc2)c(OCCCCc2ccccc2)c1` [Example 4402, 3,4-bis(4-phenylbutoxy)phenol], the “autophagy activity (level of LC3) of control compounds” value is “do not increase autophagy activity”.

With `O=Cc1ccc(OCc2ccccc2)c(OCCCc2ccccc2)c1` [Example 1301, 4-(benzyloxy)-3-(3-phenylpropoxy)benzaldehyde], the “autophagy activity (level of LC3) of control compounds” value is listed as “do not increase autophagy activity”.

Consider `Oc1ccc(OCCc2ccccc2)c(OCCc2ccccc2)c1` [Example 2202, 3,4-diphenethoxyphenol], for which the “autophagy activity (level of LC3) of control compounds” value is listed as “do not increase autophagy activity”. `OCCCCc1ccc(OCc2ccccc2)c(OCc2ccccc2)c1` [YTK-1105-1, 4-(3,4-bis(benzyloxy)phenyl)butan-1-ol]: the “autophagy activity (level of LC3) of control compounds” value is listed as “do not increase autophagy activity”. On to `O=Cc1ccc(OCCc2ccccc2)c(OCCc2ccccc2)c1` [Example 2201, 3,4-diphenethoxybenzaldehyde], for which the “autophagy activity (level of LC3) of control compounds” value was “do not increase autophagy activity”. Same read-out and setting: then `Oc1ccc(OCc2ccccc2)c(OCc2ccccc2)c1` [Example 1102, 3,4-bis(benzyloxy)phenol], with “do not increase autophagy activity”; and `Oc1ccc(OCc2ccccc2)c(OCCCc2ccccc2)c1` [Example 1302, 4-(benzyloxy)-3-(3-phenylpropoxy)phenol], with “do not increase autophagy activity”; and `O=Cc1ccc(OCc2ccccc2)c(OCc2ccccc2)c1` [Example 1101, 3,4-bis(benzyloxy)benzaldehyde], with “do not increase autophagy activity”.

Regarding `Oc1ccc(OCc2ccccc2)c(OCCCCc2ccccc2)c1` [Example 1402, 4-(benzyloxy)-3-(4-phenylbutoxy)phenol], the “autophagy activity (level of LC3) of control compounds” value was “do not increase autophagy activity”. Still for that read-out and setting: under `c1ccc(COc2ccc(OC[C@H]3CO3)cc2OCc2ccccc2)cc1` [Example 1103, (R)-2-((3,4-bis(benzyloxy)phenoxy)methyl)oxirane] stands “do not increase autophagy activity”; under `O=Cc1ccc(OCc2ccccc2)c(OCCc2ccccc2)c1` [Example 1201, 4-(benzyloxy)-3-phenethoxybenzaldehyde], “do not increase autophagy activity”.

A further test has as its system LC3. Put plainly: Autophagy activity in cultured cells by immunoblotting, treatment time (Experimental Example 3). It counts as cell-based, human. As to conditions: HeLa cells; 5 μM for 1, 3, 6, 12, 24, 48 hours or 10 μM for 24 hours; immunoblot, FIG. 4. On the procedure:
In order to investigate the autophagy activity efficacy by the compounds (Examples 1-25), immunoblotting was performed in the same manner as in Experimental Example 2 using LC3 as a marker. As for the difference, in order to evaluate the treatment time required for activation and the activity retention time, 5 μM of the representative compounds selected among the present compounds (Example 5 (YTK-1005), Example 6 (YTK-1205), Example 7 (YTK-1305), Example 2 (YTK-2205), Example 3 (YTK-3305), Example 14 (YTK-1108), Example 8 (YTK-105), Example 9 (YTK-205)) were treated for 1, 3, 6, 12, 24, 48 hours. On the other hand, 10 μM of the representative compounds selected among the present compounds (Example 10 (YT 5-1), Example 11 (YT 5-2), Example 16 (YT 8-8), Example 15 (YT 8-7), Example 17 (YTK-107), Example 18 (YTK-207), Example 20 (ATB10041), Example 21 (ATB10042), Example 22 (ATB10043), Example 23 (ATB10044), Example 24 (ATB10045), Example 25 (ATB10046)) were treated for 24 hours.
Regarding `OCCNCc1ccc(OCCc2ccccc2)c(OCCc2ccccc2)c1` [YTK-HCl-2205, 2-((3,4-diphenethoxybenzyl)amino)ethan-1-ol], the “autophagy activity (level of LC3)” value is “increasing the autophagy activity”. Same read-out and setting: then `O=C(NCCO)NCc1ccc(OCc2ccccc2)c(OCc2ccccc2)c1` [ATB10041, 1-(3,4-bis(benzyloxy)benzyl)-3-(2-hydroxyethyl)urea], with “increasing the autophagy activity”; and `OCCNCc1ccc(OCCCc2ccccc2)c(OCCCc2ccccc2)c1` [YTK-HCl-3305, 2-((3,4-bis(3-phenylpropoxy)benzyl)amino)ethan-1-ol], with “increasing the autophagy activity”; and `O=C(CO)NCc1ccc(OCc2ccccc2)c(OCc2ccccc2)c1` [ATB10042, N-(3,4-bis(benzyloxy)benzyl)-2-hydroxyacetamide], with “increasing the autophagy activity”. Still for that read-out and setting: then `OCCNCCNCc1ccc(OCc2ccccc2)c(OCc2ccccc2)c1` [YTK-HCl-1108, 2-((2-((3,4-bis(benzyloxy)benzyl)amino)ethyl)amino)ethan-1-ol], with “increasing the autophagy activity”; and `OCCNCc1ccc(OCc2ccccc2)c(OCCc2ccccc2)c1` [YTK-HCl-1205, 2-((4-(benzyloxy)-3-phenethoxybenzyl)amino)ethan-1-ol], with “increasing the autophagy activity”. For the compound `COc1cc(CNCCO)cc(OCc2ccccc2)c1OCc1ccccc1` [ATB10045, 2-((3,4-bis(benzyloxy)-5-methoxybenzyl)amino)ethan-1-ol], the “autophagy activity (level of LC3)” value is recorded as “increasing the autophagy activity”. For `N[C@H](CNCc1ccc(OCc2ccccc2)c(OCc2ccccc2)c1)C(=O)O` [ATB10043, (R)-2-amino-3-((3,4-bis(benzyloxy)benzyl)amino)propanoic acid], the “autophagy activity (level of LC3)” value is on record as “increasing the autophagy activity”. For `OCCNCc1ccc(OCc2ccccc2)c(OCCCc2ccccc2)c1` [YTK-HCl-1305, 2-((4-(benzyloxy)-3-(3-phenylpropoxy)benzyl)amino)ethan-1-ol], the “autophagy activity (level of LC3)” value is recorded as “increasing the autophagy activity”. Regarding `NC(=O)CNCc1ccc(OCc2ccccc2)c(OCc2ccccc2)c1` [ATB10044, 2-((3,4-bis(benzyloxy)benzyl)amino)acetamide], the “autophagy activity (level of LC3)” value is on record as “increasing the autophagy activity”.

As to `OCCNCc1cc(Cl)c(OCc2ccccc2)c(OCc2ccccc2)c1` [ATB10046, 2-((3,4-bis(benzyloxy)-5-chlorobenzyl)amino)ethan-1-ol], the “autophagy activity (level of LC3)” value is “increasing the autophagy activity”.
